{
  "source": "patent US20150065470A1",
  "about": "“Steroid Sulfatase Inhibitor Regimen for the Treatment of Endometriosis” (priority 2012, published 2015)",
  "key": {"[1]": {"target": "T1, Steroid Sulfatase in endometrium (Homo sapiens, UniProt P08842)", "T1 construct": "from tissue; host or cells: endometrium (biopsies) of dosed women", "T1 sequence (P08842 22-583)": "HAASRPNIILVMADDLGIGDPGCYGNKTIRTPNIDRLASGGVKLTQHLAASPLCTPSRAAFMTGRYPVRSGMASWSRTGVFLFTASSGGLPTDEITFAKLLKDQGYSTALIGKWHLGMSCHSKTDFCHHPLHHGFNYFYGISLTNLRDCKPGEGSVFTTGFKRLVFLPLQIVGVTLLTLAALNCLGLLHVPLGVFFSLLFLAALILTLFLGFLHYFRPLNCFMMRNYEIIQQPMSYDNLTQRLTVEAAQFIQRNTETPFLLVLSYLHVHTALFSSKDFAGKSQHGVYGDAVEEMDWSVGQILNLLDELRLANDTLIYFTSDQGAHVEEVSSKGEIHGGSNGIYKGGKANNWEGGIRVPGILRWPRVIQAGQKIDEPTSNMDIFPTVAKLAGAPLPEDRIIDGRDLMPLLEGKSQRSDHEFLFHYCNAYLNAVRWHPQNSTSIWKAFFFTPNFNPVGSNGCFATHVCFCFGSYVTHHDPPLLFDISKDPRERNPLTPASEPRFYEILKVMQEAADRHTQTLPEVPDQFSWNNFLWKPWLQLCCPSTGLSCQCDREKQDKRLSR", "test": "STS activity in endometrium, Example 2 (LC-MS/MS)", "format": "in vivo", "quoted_text": "STS activity was determined by spiking specimens with labelled E1-S and by measuring its conversion to E1 per gram protein under standardized incubation conditions using LC-MS/MS. Protein concentration was evaluated with a validated colorimetric assay (Bradford method)."}, "STS [2]": {"test_system": "STS", "test": "Functional biomarkers of STS activity (E1-S to E1 and DHEA-S to DHEA ratios), Example 2", "format": "in vivo, human", "experimental": "Hormone profiles were determined as described in Example 1.\nAs described before, STS converts sulphate precursors of estrogens."}, "STS [3]": {"test_system": "STS", "test": "E1-S to E1 and DHEA-S to DHEA ratios, Example 1", "format": "in vivo, human", "conditions": "multiple doses 0.25, 1, 4 mg weekly x4", "experimental": "(§1) Pharmacodynamic properties were investigated by assessment of the STS activity in PBMCs and by measurement of the serum hormonal profile comprising the ratio of E1-S to E1 and DHEA-S to DHEA. […] Hormone profiles were analysed using commercially available ELISA or RIA kits."}, "E2 (serum estradiol)": {"test_system": "E2 (serum estradiol)", "test": "Serum hormonal profile incl. estradiol concentrations, Example 1", "format": "in vivo, human", "experimental": "as §1"}, "[4]": {"conditions": "NETA treatment period, days 8 to 29"}, "[5]": {"conditions": "multiple dose 0.25 mg weekly x4, Cycle 1"}, "[6]": {"conditions": "multiple dose 0.25 mg weekly x4, Cycle 2"}, "[7]": {"conditions": "multiple dose 0.25 mg weekly x4, Cycle 3"}, "[8]": {"conditions": "multiple dose 1 mg weekly x4, Cycle 1"}, "[9]": {"conditions": "multiple dose 1 mg weekly x4, Cycle 2"}, "[10]": {"conditions": "multiple dose 1 mg weekly x4, Cycle 3"}, "[11]": {"conditions": "multiple dose 4 mg weekly x4, Cycle 1"}, "[12]": {"conditions": "multiple dose 4 mg weekly x4, Cycle 2"}, "[13]": {"conditions": "multiple dose 4 mg weekly x4, Cycle 3"}},
  "note": "Where “and” joins values, the source holds several entries; their conditions need not be identical. Equal entries are not always repeated.",
  "data": [
    {"smiles": "C[C@]12CC[C@@H]3c4ccc(OS(N)(=O)=O)cc4CC[C@H]3[C@@H]1CC[C@@H]2O", "note": "[E2MATE, Estradiol-3-o-sulfamate]", "values": [
      {"measurement": "AVG [%] average inhibition of Steroid Sulfatase in endometrium (average effect over time (AUC))", "setting": "[1]; E2MATE 4 mg weekly and/or NETA 10 mg daily for 4 weeks", "result": "66.6 (2.7) % and 66.60%"},
      {"measurement": "STS inhibition [%] in endometrium", "setting": "[1]; end of treatment, between Day 25 and Day 29", "result": "91% and 90.66%"},
      {"measurement": "Emax", "setting": "[1]; read-out: Emax [%] maximal inhibition of Steroid Sulfatase in endometrium", "result": 91, "unit": "%"},
      {"measurement": "STS inhibition [%] in endometrium, After treatment", "setting": "[1]; third biopsy day, 1 month after the end of the treatment (approximately 50 days after dosing)", "result": "88% and 87.50%"},
      {"measurement": "Baseline relative change of the DHEA-S/DHEA [%]", "setting": "STS [2]; Day 1", "result": 0, "unit": "%"},
      {"measurement": "Baseline relative change of the E1-S/E1 [%]", "setting": "STS [2]; Day 1", "result": 0, "unit": "%"},
      {"measurement": "Baseline relative change of the DHEA-S/DHEA [%]", "setting": "STS [2]; Day 8", "result": 133, "unit": "%"},
      {"measurement": "Baseline relative change of the E1-S/E1 [%]", "setting": "STS [2]; Day 8", "result": 208, "unit": "%"},
      {"measurement": "Baseline relative change of the DHEA-S/DHEA [%]", "setting": "STS [2]; Day 15", "result": 116, "unit": "%"},
      {"measurement": "Baseline relative change of the E1-S/E1 [%]", "setting": "STS [2]; Day 15", "result": 282, "unit": "%"},
      {"measurement": "Baseline relative change of the DHEA-S/DHEA [%]", "setting": "STS [2]; Day 22", "result": 113, "unit": "%"},
      {"measurement": "Baseline relative change of the E1-S/E1 [%]", "setting": "STS [2]; Day 22", "result": 218, "unit": "%"},
      {"measurement": "Baseline relative change of the DHEA-S/DHEA [%]", "setting": "STS [2]; Day 29", "result": 148, "unit": "%"},
      {"measurement": "Baseline relative change of the E1-S/E1 [%]", "setting": "STS [2]; Day 29", "result": 194, "unit": "%"},
      {"measurement": "Baseline relative change of the DHEA-S/DHEA [%]", "setting": "STS [2]; Day 57", "result": 195, "unit": "%"},
      {"measurement": "Baseline relative change of the E1-S/E1 [%]", "setting": "STS [2]; Day 57", "result": 218, "unit": "%"},
      {"measurement": "Baseline relative change of the DHEA-S/DHEA [%]", "setting": "STS [2]; Day 85", "result": 232, "unit": "%"},
      {"measurement": "Baseline relative change of the E1-S/E1 [%]", "setting": "STS [2]; Day 85", "result": 243, "unit": "%"},
      {"measurement": "Baseline relative change of the DHEA-S/DHEA [%]", "setting": "STS [2]; Day 113", "result": 175, "unit": "%"},
      {"measurement": "Baseline relative change of the E1-S/E1 [%]", "setting": "STS [2]; Day 113", "result": 400, "unit": "%"},
      {"measurement": "baseline relative mean increases of the DHEA-S to DHEA ratio (up to)", "setting": "STS [2]; [4]", "result": "up to 265%"},
      {"measurement": "baseline relative mean increases of the E1-S to E1 ratio (up to)", "setting": "STS [2]; [4]", "result": "up to 282%"},
      {"measurement": "turn-over of E1-S to E1", "setting": "STS [3]", "result": "dose-dependent decreased turn-over"},
      {"measurement": "Avg estradiol concentration, Mean", "setting": "E2 (serum estradiol); [5]", "result": 135.7, "unit": "ng/L"},
      {"measurement": "Max estradiol concentration, Mean", "setting": "E2 (serum estradiol); [5]", "result": 305.3, "unit": "ng/L"},
      {"measurement": "Avg estradiol concentration, Mean", "setting": "E2 (serum estradiol); [6]", "result": 116.0, "unit": "ng/L"},
      {"measurement": "Max estradiol concentration, Mean", "setting": "E2 (serum estradiol); [6]", "result": 260.5, "unit": "ng/L"},
      {"measurement": "Avg estradiol concentration, Mean", "setting": "E2 (serum estradiol); [7]", "result": 107.1, "unit": "ng/L"},
      {"measurement": "Max estradiol concentration, Mean", "setting": "E2 (serum estradiol); [7]", "result": 185.4, "unit": "ng/L"},
      {"measurement": "Avg estradiol concentration, Mean", "setting": "E2 (serum estradiol); [8]", "result": 126.0, "unit": "ng/L"},
      {"measurement": "Max estradiol concentration, Mean", "setting": "E2 (serum estradiol); [8]", "result": 278.6, "unit": "ng/L"},
      {"measurement": "Avg estradiol concentration, Mean", "setting": "E2 (serum estradiol); [9]", "result": 109.0, "unit": "ng/L"},
      {"measurement": "Max estradiol concentration, Mean", "setting": "E2 (serum estradiol); [9]", "result": 193.4, "unit": "ng/L"},
      {"measurement": "Avg estradiol concentration, Mean", "setting": "E2 (serum estradiol); [10]", "result": 110.0, "unit": "ng/L"},
      {"measurement": "Max estradiol concentration, Mean", "setting": "E2 (serum estradiol); [10]", "result": 221.6, "unit": "ng/L"},
      {"measurement": "Avg estradiol concentration, Mean", "setting": "E2 (serum estradiol); [11]", "result": 134.8, "unit": "ng/L"},
      {"measurement": "Max estradiol concentration, Mean", "setting": "E2 (serum estradiol); [11]", "result": 317.8, "unit": "ng/L"},
      {"measurement": "Avg estradiol concentration, Mean", "setting": "E2 (serum estradiol); [12]", "result": 100.9, "unit": "ng/L"},
      {"measurement": "Max estradiol concentration, Mean", "setting": "E2 (serum estradiol); [12]", "result": 207.7, "unit": "ng/L"},
      {"measurement": "Avg estradiol concentration, Mean", "setting": "E2 (serum estradiol); [13]", "result": 94.9, "unit": "ng/L"},
      {"measurement": "Max estradiol concentration, Mean", "setting": "E2 (serum estradiol); [13]", "result": 180.9, "unit": "ng/L"},
      {"measurement": "differences in mean concentration-time profiles of E2, P4, LH, FSH, T and D4A compared to placebo", "setting": "E2 (serum estradiol); multiple dose administration", "result": "No clinically relevant dose-related differences"},
      {"measurement": "Avg (weighted average) estradiol concentration, Mean", "setting": "E2 (serum estradiol); single dose 0.25 mg E2MATE", "result": 141.2, "unit": "ng/L"},
      {"measurement": "Max estradiol concentration, Mean", "setting": "E2 (serum estradiol); single dose 0.25 mg E2MATE", "result": 335.1, "unit": "ng/L"},
      {"measurement": "Avg (weighted average) estradiol concentration, Mean", "setting": "E2 (serum estradiol); single dose 1 mg E2MATE", "result": 131.0, "unit": "ng/L"},
      {"measurement": "Max estradiol concentration, Mean", "setting": "E2 (serum estradiol); single dose 1 mg E2MATE", "result": 318.1, "unit": "ng/L"},
      {"measurement": "Avg (weighted average) estradiol concentration, Mean", "setting": "E2 (serum estradiol); single dose 4 mg E2MATE", "result": 113.8, "unit": "ng/L"},
      {"measurement": "Max estradiol concentration, Mean", "setting": "E2 (serum estradiol); single dose 4 mg E2MATE", "result": 275.3, "unit": "ng/L"},
      {"measurement": "Avg (weighted average) estradiol concentration, Mean", "setting": "E2 (serum estradiol); single dose 8 mg E2MATE", "result": 109.3, "unit": "ng/L"},
      {"measurement": "Max estradiol concentration, Mean", "setting": "E2 (serum estradiol); single dose 8 mg E2MATE", "result": 221.1, "unit": "ng/L"},
      {"measurement": "effects on mean concentration-time profiles of E2, P4, LH, FSH, T and D4A compared to placebo", "setting": "E2 (serum estradiol); single dose administration", "result": "No clinically relevant effects"}
    ]}
  ]
}
